Assay results as given in patent US6794491B1, “Polypeptides, their production and use” (Takeda Chemical Industries, Ltd., priority 1995, dated 2004).
Where no end group is shown, it is not given here.

Experiments:
[1] = target: T1, UHR-1 expressed in CHO cells (CHO-UHR1) (Rattus norvegicus, UniProt Q64121, L289V); test: release of arachidonic acid metabolites from CHO-UHR1 cells; assay type: cell-based; conditions: CHO cells expressing rat homolog UHR1; duplicate
T1 construct: expressed in transfected cells; host or cells: CHO dhfr- cells transfected with pAKKO-UHR-1
T1 sequence (Q64121 1-370 L289V): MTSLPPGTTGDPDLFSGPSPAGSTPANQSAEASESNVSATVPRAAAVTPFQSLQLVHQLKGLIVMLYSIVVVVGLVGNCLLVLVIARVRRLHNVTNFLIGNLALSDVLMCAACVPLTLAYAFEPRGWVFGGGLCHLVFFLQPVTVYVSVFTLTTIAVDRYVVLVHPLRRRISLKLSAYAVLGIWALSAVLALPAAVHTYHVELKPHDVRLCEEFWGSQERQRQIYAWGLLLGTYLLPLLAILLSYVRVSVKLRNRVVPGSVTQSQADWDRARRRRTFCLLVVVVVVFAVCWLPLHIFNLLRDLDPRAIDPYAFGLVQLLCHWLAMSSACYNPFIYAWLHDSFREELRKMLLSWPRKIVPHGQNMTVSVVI
Method: The full-length receptor protein-expressed CHO cells and mock CHO cells were seeded in a 24-well plate, 0.5×10^5 cells/well, and cultured for 24 hours. Then, [^3H] arachidonic acid was added at a final concentration of 0.25 μCi/well. Sixteen (16) hours after addition of [^3H] arachidonic acid, the cells were rinsed with 0.05% BSA-HBSS and the above-mentioned crude peptide fraction was added, 400 μl/well. The mixture was incubated at 37° C. for 30 minutes and a 300 μl portion of the reaction mixture (400 μl) was added to 4 ml of a scintillator and the amount of [^3H] arachidonic acid metabolite released into the reaction mixture was determined with a scintillation counter.
Same as described in Example 11, the release activity of arachidonic acid metabolite was measured on CHO-19P2-9 and CHO-UHR1 and mock CHO.

[2] = glucose-induced increase in plasma insulin concentration; assay type: in vivo, Male Wistar rats; conditions: bolus injection in the jugular vein with glucose 86 mg/rat
Method: Male Wistar rats (8-10w) were anesthetized by i.p. injection of pentobarbital (65 mg/kg). Glucose alone (86 mg/rat) or glucose and 19P2-L31 (675 pmol, 2.25 nmol, 6.75 nmol and 67.5 nmol/rat) were administered by bolus injection in the jugular vein. Blood samples were withdrawn from the contralateral vein. Plasma insulin concentration was determined with a radioimnunoassay kit (Amersham).

[3] = motor activity of mouse after administration to lateral ventricle; assay type: in vivo, ICR male mice; conditions: for rearing behavior (increasing tendency) / spontaneous motor activity / rearing behavior: lateral ventricle, mouse
Method: The effects of administration of […] to mouse lateral ventricle on motor activity were studied. The mature ICR male mice (weight at operation: about 35 g) were anesthetized by intraperitoneal administration of 50 mg/kg of pentobarbital, and then fixed on a stereotaxic apparatus. The skull of a said mouse was exposed, then a hole was made by dental drill for guide-cannulization into the left lateral ventricle. The tip of a stainless-steel guide-cannula (24 G, length: 5 mm) for drug injection to lateral ventricle, was inserted to the position of AP: +0.6 mm (from bregma), L: left 1 mm and H: −1 mm (from dura matter). The guide-cannula was fixed onto the skull with adhesive. The cannula-implanted mice were housed as described above and were used for behavioral analysis at least 3 days after the operation.
Motor activity such as spontaneous motor activity and rearing was measured while each mouse was in a transparent acrylic cage (24×37×30 cm) within a soundproofed, illuminated (light up: at 6-18 o'clock) box. Tap water and laboratory chow were available ad libitum. Motor activity was measured by means of a Supermex (Muromachi Kikai). Drugs and PBS were administered at 2:30±30 p.m. At the administration, a stainless-steel micro-injection cannula (30 G, length: 6 mm) was inserted into the guide-cannula. The micro-injection cannula was connected to a microsyringe pump with Teflon tube, and injection of PBS or a peptide dissolved in PBS lasted for 2 minutes at a speed of 2 μl/min. The micro-injection cannula was withdrawn after over a period of 2 minutes from end of injection, then motor activity was meausred.
The results are expressed as a mean±S.E.M. Student's t test was used to determine the significance of differences between values from the mice treated with a peptide and the PBS-injected controls. For the purpose of this analysis, p<0.05 was assumed to be the minimal level of significance.

[4] = plasma growth hormone (GH) level in freely moving rats, GHRH-induced; assay type: in vivo, male Wistar rats; conditions: 50 nmol into the third ventricle, 5 μg/kg GHRH 10 min later
Method: Mature male Wistar rats were anesthetized with pentobarbital 50 mg/kg i.p. and, as in Example 41, a stainless-steel guide cannula AG-12 (0.4 mm in. dia., 0.5 mm out. dia., EICOM) was implanted in position with its tip situated in the upper part of the third ventricle. After the operation the rats were housed in individual cages and kept for at least 3 days for recuperation and, then, a cannula (30 cm long, 0.5 mm in. dia., 0.9 mm out. dia., Natsume Seisakusho) filled with heparin (200 U/ml)-containing saline was inserted into the right atrium from the right jugular vein under pentobarbital anesthesia. The rats were maintained overnight for complete arousal from anesthesia and then transferred to transparent acrylic cages (30 cm×30 cm×35 cm). A 1 ml tuberculin syringe with a 24-G needle (both by Termo) was connected to the cannula inserted in the atrium and 300 μl of blood was drawn. To prevent clotting, the syringe was filled with 20 μl of saline containing 200 U/ml of heparin beforehand. […] The concentrations of GH in the plasma were determined by radioimmunoassay.
The results were expressed as a mean±S.E.M. To test for significant difference between the group treated with 19P2-L31 dissolved in PBS and the control group treated with PBS alone, Student's t-test was used. […]

In the case of “Ser-Arg-Ala-His-Gln-His-Ser-Met-Glu-Ile-Arg-Thr-Pro-Asp-Ile-Asn-Pro-Ala-Trp-Tyr-Ala-Gly-Arg-Gly-Ile-Arg-Pro-Val-Gly-Arg-Phe-NH2 (SRAHQHSMEIRTPDINPAWYAGRGIRPVGRF-NH2) [19P2-L31, synthetic ligand polypeptide]”, the “release activity of arachidonic acid metabolite” value [1] is reported as “detected same as CHO-19P2-9”, the “glucose-induced increase in plasma insulin concentration (first and second phase)” value (shortened to “glucose-induced increase”) ([2]; 675 pmol/rat) is reported as “partially inhibited” and the “glucose-induced increase” value ([2]; 2.25 nmol/rat) is reported as “partially inhibited”. For the same substance, the “glucose-induced increase” value ([2]; 6.75 nmol/rat) was “partially inhibited”, the “glucose-induced increase” value ([2]; 67.5 nmol/rat) was “completely inhibited” and the “rearing behavior (increasing tendency)” value ([3]; 0.01 nmol) was “not statistically significant”. The spontaneous motor activity ([3]; 0.01 nmol, at 20 min and 40 min after injection) was “significant increase”, the “rearing behavior (increasing tendency)” value ([3]; 0.1 nmol) was “not statistically significant” and the spontaneous motor activity ([3]; 0.1 nmol, at 25 min, 40 min and 70 min after injection) was “significant increase”. The spontaneous motor activity ([3]; 1 nmol) was “did not cause statistically significant change”, the rearing behavior ([3]; 1 nmol, at only 105 min after injection) was “significant decrease” and the rearing behavior ([3]; 10 nmol) was “significant variation”. The spontaneous motor activity ([3]; 10 nmol) was “significant increase”, the “amount of activity (motor activity)” value ([3]; 0.01-10 nmol, lateral ventricle of mice, summary) was “an increase in the amount of activity was found” and the “GHRH-induced elevation of plasma GH” value [4] was “significantly inhibited”.
